{"source": "patent EP1891948A1", "about": "“Treatment of neurological and neuropsychological disorders” (Probiodrug AG, priority 2000, dated 2002)", "system": "WistarF/Han (WF) rats", "assay": "Response to novelty (open field test) after i.c.v. treatment", "assay_type": "in vivo", "procedure": "Animals. Male WistarF/Han (WF) rats (Central Animal Laboratory, Hannover Medical School, Hannover, Germany, see http://www.mh-hannover.de/institut/tierlabor/wf.htm for details), weighing 350-390g, were housed in a sound-proof, temperature controlled (24.0±0.5°C) room under specific pathogen free conditions with a 12/12h dark/light cycle (lights on at 07.00 with illumination level of 80 Lux). Food (Altromin lab chow pellets) and tap water were available ad libitum. Under ketamine/xylasine (100/5 mg/kg, i.p.) anesthesia, the rats were fixed in a Kopf stereotaxic frame and implanted with cannulae (Plastic One, Inc., Roanoke, VA, USA) above the lateral ventricle. All research and animal care procedures were approved by the Lower Saxony district government (Hannover, Germany) and followed principles described in the European Community's Council Directive of 24 November 1986 (86/609/EEC).\nSurgery and i.c.v. application. For surgery, rats were anesthetized and prepared with i.c.v. cannulaes (coordinates: A:-0.7mm caudal, L:1.4mm lateral to bregma; and V:3.2mm ventral to the skull surface; tooth bar +3.0 above ear bars) using standard stereotaxic procedures as described in detail elsewhere (von Hörsten et al., 1998a,b,c). […]\nResponse to novelty (Open field test). […] Spontaneous activity during a single continuous test session of 15min was recorded using a video path analyzer system (E61-21 Video Path Analyser system, Coulboum instruments, PA, U.S.A.). […] Furthermore, the total incidence of fecal boli was counted after each session and the incidence and duration (sec) of grooming behavior was simultaneously recorded from a video monitor by a person blind to the treatment of the animals (von Hörsten et al., 1998c).\nStatistical analysis. For statistical analysis, behavioral raw data from every test minute were analyzed by two-way analyses of variance (ANOVA) for repeated measures (factors: treatment and time as a repeated measurement). Data obtained as totals from a session were analyzed by one-way (factor: treatment) ANOVA. […]"}
{"smiles": "CCC(C)C(N)C(=O)N1CCSC1", "note": "(stereo not drawn) [isoleucyl thiazolidine]", "values": [{"measurement": "dosage already effective on time spent close to the wall", "setting": "Fig. 5", "value": 50, "unit": "pmol"}, {"measurement": "time spent close to the wall", "setting": "sum of four consecutive minutes of open field testing, Fig. 5", "value": "dose-dependent reduction"}, {"measurement": "activity in the open field (distance traveled)", "setting": "wide range of dosages (0.05nmol, 5nmol, 500nmol), 60 min before test, Fig. 4", "value": "no effect"}]}
